Series [1] has as its system hTERT promoter (PhTERT) expression. As to the kind of experiment: SEAP assay (PhTERT-SEAP reporter, H1299). It counts as cell-based, human. The following applies: Homo sapiens, NCI-H1299, PhTERT-SEAP (H1299); for activity at 1 µM: read-out: Relative SEAP activity (%); for activity at 10 µM / activity at 100 µM: read-out: Relative SEAP activity (%) (converted). As to the method:
H1299 were grown in RPMI 1640 media supplemented with 10% fetal bovine serum, 100 units/mL penicillin and […] streptomycin in a humidified atmosphere with 5% CO2 at 37° C. Culture media were changed every three days. To establish stable cell lines that the expression of hTERT could be monitored by a reporter system, a about 3.3 kbp DNA fragment ranging from −3338 to +1 bp of the hTERT gene (hTERT promoter, PhTERT) was subcloned upstream to a secreted alkaline phosphatase gene (SEAP) and transfected into H1299 bp electroporation. The stable clones were selected using G418. The stable clones derived from H1299 were cultured using conditions that are similar to their parental cells.
Secreted alkaline phosphatase was used as the reporter system to monitor the transcriptional activity of hTERT. Here, about 10^4 cells each were grown in 96-well plates and incubated at 37° C. for 24 hours and changed with fresh media. Varying amounts of drugs were added and cells were incubated for another 24 hours. Culture media were collected and heated at 65° C. for 10 min to inactivate heat-labile phosphatases. An equal amount of SEAP buffer (2 M diethanolamine, 1 mM MgCl2, and 20 mM L-homoarginine) was added to the media and p-nitrophenyl phosphate was added to a final concentration of 12 mM. Absorptions at 405 nm were taken, and the rate of absorption increase is determined (the increasing rate of absorbance at 405 nm was used to represent the activity of SEAP).

Series [2] in a line: MTT assay (relative cell survival), H1299. The following applies: human, H1299 non-small cell lung cancer cells (PhTERT-SEAP), Relative MTT viability (%). A general note: Formazan colour is commonly taken as a measure of viable cells.

Some results are limits rather than exact numbers.

Consider `O=C1c2ccccc2C(=O)c2c1ccc1nc(CN(Cc3ccccn3)Cc3ccccn3)[nH]c21` [CL10, 2-((di-(2-picolyl)amino)methyl)-1H-anthra[1,2-d]imidazole-6,11-dione], for which, in series [1], the activity at 1 µM came to 86.5 ± 3.63%, the activity at 10 µM is -6.44% and the activity at 100 µM is -7.58%. Also, in series [2], the viability at 72 h, 1 µM was determined as 101 ± 5.98%.

Regarding `CN(C)Cc1nc2ccc3c(c2[nH]1)C(=O)c1ccccc1C3=O` [CL02, 2-((dimethylamino)methyl)-1H-anthra[1,2-d]imidazole-6,11-dione], in series [1], the activity at 1 µM is 83.6 ± 8.52%, the activity at 10 µM is under 50% and the activity at 100 µM was -2.26%. In addition, in series [2], the viability at 72 h, 1 µM is 98.9 ± 6.37% and the viability at 72 h, 10 µM was over 50%.

`CCN(C)Cc1nc2ccc3c(c2[nH]1)C(=O)c1ccccc1C3=O` [CL03, 2-((ethylmethylamino)methyl)-1H-anthra[1,2-d]imidazole-6,11-dione]: in series [1], the activity at 1 µM amounted to 97.1 ± 12%, the activity at 10 µM is under 50% and the activity at 100 µM was -2.69%. Moreover, in series [2], the viability at 72 h, 1 µM amounted to 98.9 ± 3.64% and the viability at 72 h, 10 µM is over 50%.

As for `O=C1c2ccccc2C(=O)c2c1ccc1nc(CN3CCN(c4ccccc4F)CC3)[nH]c21` [CL30, 2-((4-(2-fluorophenyl)piperazin-1-yl)methyl)-1H-anthra[1,2-d]imidazole-6,11-dione], in series [1], the activity at 1 µM is 103 ± 3.44%, the activity at 10 µM is 78.2% and the activity at 100 µM is -0.29%. Also, in series [2], the viability at 72 h, 1 µM was 88.4 ± 2.16%; the viability at 72 h, 10 µM is 76.7%; the viability at 72 h, 100 µM was 14.8%.

Regarding `O=C(CCCl)Nc1ccc2c(c1NC(=O)CCCl)C(=O)c1ccccc1C2=O` [CL34, 1,2-bis(3-chloropropionamido)anthraquinone], in series [1], the activity at 1 µM worked out at 87.4 ± 4.51%, the activity at 10 µM was 12.5 ± 4.35% and the activity at 100 µM was -2.74 ± 0.61%. In series [2], the viability at 72 h, 1 µM was found to be 94.1 ± 3.21%; the viability at 72 h, 10 µM is under 50%; the viability at 72 h, 100 µM stood at 5.85 ± 2.1%.

For the compound `O=C1c2ccccc2C(=O)c2c1ccc1nc(CN3CCCCCC3)[nH]c21` [CL18, 2-((azepan-1-yl)methyl)-1H-anthra[1,2-d]imidazole-6,11-dione], in series [1], the activity at 1 µM is 107 ± 5.16%, the activity at 10 µM is 66.5% and the activity at 100 µM is 3.79%. Besides, in series [2], the viability at 72 h, 1 µM came to 104 ± 6.82% and the viability at 72 h, 10 µM is 85.1%.

Regarding `O=C1c2ccccc2C(=O)c2c1ccc1nc(CCN3CCN(c4ncccn4)CC3)[nH]c21` [CL39, 2-(2-(4-(pyrimidin-2-yl)piperazin-1-yl)ethyl)-1H-anthra[1,2-d]imidazole-6,11-dione], in series [1], the activity at 1 µM was 83 ± 3.61%, the activity at 10 µM was under 50% and the activity at 100 µM was -8.09%. In addition, the viability at 72 h, 1 µM in series [2] came out at 90.7 ± 5.81%.

Consider `O=C1c2ccccc2C(=O)c2c1ccc1nc(CNCc3ccc4c(c3)OCO4)[nH]c21` [CL15, 2-((piperonylamino)methyl)-1H-anthra[1,2-d]imidazole-6,11-dione], for which, in series [1], the activity at 1 µM worked out at 74.5 ± 14.3%, the activity at 10 µM was 74.6 ± 17.4% and the activity at 100 µM was 1.32%. In addition, in series [2], the viability at 72 h, 1 µM was 109 ± 2.02%; the viability at 72 h, 10 µM is 103%; the viability at 72 h, 100 µM is 14.2%.

Regarding `CN(Cc1nc2ccc3c(c2[nH]1)C(=O)c1ccccc1C3=O)CC1OCCO1` [CL08, 2-(((1,3-dioxolan-2-yl)-N-methylmethanamino)methyl)-1H-anthra[1,2-d]imidazole-6,11-dione], in series [1], the activity at 1 µM worked out at 90.4 ± 2.87%, the activity at 10 µM is 68.7% and the activity at 100 µM was 6.78%. Moreover, in series [2], the viability at 72 h, 1 µM was found to be 104 ± 3.91%; the viability at 72 h, 10 µM is 89.8%; the viability at 72 h, 100 µM is 28.3%.

For `O=C1c2ccccc2C(=O)c2c1ccc1nc(CN3CCC4(CC3)OCCO4)[nH]c21` [CL19, 2-((1,4-dioxa-8-azaspiro[4.5]decane-8-yl)methyl)-1H-anthra[1,2-d]imidazole-6,11-dione], in series [1], the activity at 1 µM came out at 97 ± 1.84%, the activity at 10 µM is 95.5% and the activity at 100 µM is 14.1%. For the same compound, in series [2], the viability at 72 h, 1 µM was determined as 103 ± 2.09%; the viability at 72 h, 10 µM is 79.2%; the viability at 72 h, 100 µM was 14.8%.

For `O=C1c2ccccc2C(=O)c2c1ccc1nc(CN3CCN(c4ncccn4)CC3)[nH]c21` [CL29, 2-((4-(pyrimidin-2-yl)piperazin-1-yl)methyl)-1H-anthra[1,2-d]imidazole-6,11-dione], in series [1], the activity at 1 µM was 111 ± 3.55%, the activity at 10 µM is 92.2% and the activity at 100 µM was 19.4%. In series [2], the viability at 72 h, 1 µM is 85.5 ± 3.17%; the viability at 72 h, 10 µM is 73.7%; the viability at 72 h, 100 µM was 28.2%.

Turning to `O=C1c2ccccc2C(=O)c2c1ccc1nc(CNCc3ccccc3C(F)(F)F)[nH]c21` [CL12, 2-((2-(trifluoromethyl)benzylamino)methyl)-1H-anthra[1,2-d]imidazole-6,11-dione], in series [1], the activity at 1 µM amounted to 87.3 ± 3.26%, the activity at 10 µM was 81.2% and the activity at 100 µM is -1.71%. For the same compound, in series [2], the viability at 72 h, 1 µM is 98.5 ± 5.49%; the viability at 72 h, 10 µM was 96.3%; the viability at 72 h, 100 µM is 6.32%.

Turning to `CN1CCN(CCc2nc3ccc4c(c3[nH]2)C(=O)c2ccccc2C4=O)CC1` [CL36, 2-(2-(4-methylpiperazin-1-yl)ethyl)-1H-anthra[1,2-d]imidazole-6,11-dione], in series [1], the activity at 1 µM came to 73.9 ± 3.2%, the activity at 10 µM is 7.1% and the activity at 100 µM is -3.06%. Further, in series [2], the viability at 72 h, 1 µM stood at 87.2 ± 6.98% and the viability at 72 h, 10 µM was under 50%.

As to `O=C1c2ccccc2C(=O)c2c1ccc1nc(CN3CCSCC3)[nH]c21` [CL22, 2-(thiomorpholinomethyl)-1H-anthra[1,2-d]imidazole-6,11-dione], in series [1], the activity at 1 µM is 115 ± 2.45%, the activity at 10 µM is 76.7% and the activity at 100 µM was 4.62%. In series [2], the viability at 72 h, 1 µM came to 91.8 ± 3.61%; the viability at 72 h, 10 µM is 77.5%; the viability at 72 h, 100 µM is 0.93%.

As to `O=C1c2ccccc2C(=O)c2c1ccc1nc(CN3CCSC3)[nH]c21` [CL23, 2-((thiazolidin-3-yl)methyl)-1H-anthra[1,2-d]imidazole-6,11-dione], in series [1], the activity at 1 µM stood at 106 ± 3.01%, the activity at 10 µM was 85.6% and the activity at 100 µM was 11.9%. In series [2], the viability at 72 h, 1 µM amounted to 89.3 ± 4.79%; the viability at 72 h, 10 µM is 75.5%; the viability at 72 h, 100 µM is 5.18%.

As to `O=C1c2ccccc2C(=O)c2c1ccc1nc(CCN3CCN(Cc4ccccc4)CC3)[nH]c21` [CL40, 2-(2-(4-benzylpiperazin-1-yl)ethyl)-1H-anthra[1,2-d]imidazole-6,11-dione], in series [1], the activity at 1 µM stood at 73 ± 8.24% and the activity at 100 µM was -7.29 ± 0.0949%. Also, in series [2], the viability at 72 h, 1 µM amounted to 95.6 ± 8.22%; the viability at 72 h, 10 µM is over 50%; the viability at 72 h, 100 µM is 6.65%.

As for `O=C1c2ccccc2C(=O)c2c1ccc1nc(CN3CCOCC3)[nH]c21` [CL21, 2-(morpholinomethyl)-1H-anthra[1,2-d]imidazole-6,11-dione], in series [1], the activity at 1 µM was 102 ± 4.81%, the activity at 10 µM is 97.3% and the activity at 100 µM is 25.6%. In addition, in series [2], the viability at 72 h, 1 µM is 89.8 ± 2.58%; the viability at 72 h, 10 µM was 70.8%; the viability at 72 h, 100 µM was 13.4%.

As to `N#Cc1ccccc1N1CCN(Cc2nc3ccc4c(c3[nH]2)C(=O)c2ccccc2C4=O)CC1` [CL31, 2-((4-(2-cyanophenyl)piperazin-1-yl)methyl)-1H-anthra[1,2-d]imidazole-6,11-dione], in series [1], the activity at 1 µM is 106 ± 4.67%, the activity at 10 µM was 56.7% and the activity at 100 µM was 5.59%. Also, in series [2], the viability at 72 h, 1 µM was found to be 78.3 ± 5.02%; the viability at 72 h, 10 µM is 61.7%; the viability at 72 h, 100 µM is 21.6%.

As for `C=CCN1CCN(Cc2nc3ccc4c(c3[nH]2)C(=O)c2ccccc2C4=O)CC1` [CL26, 2-((4-allylpiperazin-1-yl)methyl)-1H-anthra[1,2-d]imidazole-6,11-dione], in series [1], the activity at 1 µM was found to be 87.2 ± 1.82%, the activity at 10 µM is 16.7% and the activity at 100 µM was -6.77%. Further, in series [2], the viability at 72 h, 1 µM worked out at 86 ± 3.37% and the viability at 72 h, 10 µM is 44.8%.

As for `CCCN(C)Cc1nc2ccc3c(c2[nH]1)C(=O)c1ccccc1C3=O` [CL05, 2-((methylpropylamino)methyl)-1H-anthra[1,2-d]imidazole-6,11-dione], in series [1], the activity at 1 µM is 96 ± 6.58%, the activity at 10 µM was under 50% and the activity at 100 µM was -0.38%. Besides, the viability at 72 h, 1 µM in series [2] was determined as 93.5 ± 7.25%.

In general, viability refers to a read-out of living cells in per cent, often relative to untreated cells.
